# Reference: US20140023611A1 (priority 2010, published 2014)
# Key:
# rat NaP2b (SLC34A2) = molecular target: T1, rat NaP2b (SLC34A2) (Rattus norvegicus, UniProt Q9JJ09); test: Inhibition of NaP2b-mediated Pi (33P) uptake in transfected HEK293 cells, rat NaP2b; format: cell-based; conditions: 33P Pi uptake, 0.1 mM phosphate, value given as pIC50 range
# T1 construct: host or cells: HEK293
# T1 sequence (Q9JJ09 1-695): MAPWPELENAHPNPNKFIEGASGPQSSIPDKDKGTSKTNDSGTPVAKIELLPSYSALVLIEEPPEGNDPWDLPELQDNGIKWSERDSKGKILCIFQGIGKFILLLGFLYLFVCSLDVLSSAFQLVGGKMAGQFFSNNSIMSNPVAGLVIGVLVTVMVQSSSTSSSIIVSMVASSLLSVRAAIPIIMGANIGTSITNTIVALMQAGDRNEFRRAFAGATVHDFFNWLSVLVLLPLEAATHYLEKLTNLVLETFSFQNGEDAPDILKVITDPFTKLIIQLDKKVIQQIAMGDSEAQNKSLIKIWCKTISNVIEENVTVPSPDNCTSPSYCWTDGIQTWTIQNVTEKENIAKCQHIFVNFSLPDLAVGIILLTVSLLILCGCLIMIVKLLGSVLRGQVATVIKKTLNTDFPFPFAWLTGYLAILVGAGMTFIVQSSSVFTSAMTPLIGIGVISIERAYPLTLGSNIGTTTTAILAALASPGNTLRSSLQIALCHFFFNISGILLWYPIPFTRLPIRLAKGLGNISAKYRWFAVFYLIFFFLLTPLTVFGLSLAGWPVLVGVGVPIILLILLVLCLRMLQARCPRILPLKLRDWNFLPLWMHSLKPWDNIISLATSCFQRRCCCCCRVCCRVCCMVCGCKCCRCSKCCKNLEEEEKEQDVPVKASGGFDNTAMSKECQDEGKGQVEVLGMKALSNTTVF
# Procedure, shortened: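 HEK293 cells were transiently transfected with NaP2b cDNA using Lipofectamine and grown near confluence. Compounds were tested at twelve concentrations from 0.1 nM to 30 uM in duplicate, and 33P-phosphate uptake was counted by scintillation after lysis. Results are expressed as pIC50.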
# [1] = Stability of compounds in simulated gastric fluid (SGF); format: in vitro ADME; conditions: simulated gastric fluid (3 mg/mL pepsin), incubation time 6 hr, relative to t=0
# Procedure: (§1) Test compounds were incubated at […] in simulated gastric fluid (SGF; standard USP solution with 3 mg/mL pepsin) or simulated intestinal fluid (SIF; standard USP solution with 3 mg/mL pancreatin) for 3 hr or 6 hr. HPLC-UV or HPLC-MS were used to determine test compound levels using peak area %. Results (Table 14) were reported as the percentage of test compound remaining after incubation in a given condition relative to test compound present at t=0 in the same condition.
# [2] = Stability of compounds in simulated intestinal fluid (SIF); format: in vitro ADME; conditions: simulated intestinal fluid (3 mg/mL pancreatin), incubation time 6 hr, relative to t=0
# Procedure: as §1
# [3] = Determination of compound Cmax and AUC after oral gavage (plasma LC-MS/MS); format: in vivo, Sprague-Dawley rats; conditions: Sprague-Dawley, rat, plasma, po, Structure (I) examples, Table 15, actual oral dose 3-15 mg/kg, plasma 0.5-4 h
# Procedure: (§2) Sprague-Dawley rats were orally gavaged with test article at a nominal dose of 2.5 or 10 mg/kg and blood was collected at 0.5, 1, 2 and 4 h. Blood samples were processed to plasma using K2EDTA as an anticoaglulant. Plasma samples were treated with acetonitrile containing an internal standard, precipitated proteins removed by centrifugation. Supernatants were analyzed by LC-MS/MS and compound concentrations were determined by interpolation from a standard curve prepared in plasma. All compounds were orally dosed at the dosage shown, and pharmacokinetic parameters determined.
# as §2, with “interpolated” for “interpolation”
# as §2, with “interpolated” for “interpolation”
# human NaP2b (SLC34A2) = molecular target: T2, human NaP2b (SLC34A2) (Homo sapiens, UniProt O95436); test: Inhibition of NaP2b-mediated Pi (33P) uptake in transfected HEK293 cells, human NaP2b; format: cell-based; conditions: read-out: pIC50 range for human NaP2b (converted)
# T2 construct: host or cells: HEK293
# T2 sequence (O95436 1-690): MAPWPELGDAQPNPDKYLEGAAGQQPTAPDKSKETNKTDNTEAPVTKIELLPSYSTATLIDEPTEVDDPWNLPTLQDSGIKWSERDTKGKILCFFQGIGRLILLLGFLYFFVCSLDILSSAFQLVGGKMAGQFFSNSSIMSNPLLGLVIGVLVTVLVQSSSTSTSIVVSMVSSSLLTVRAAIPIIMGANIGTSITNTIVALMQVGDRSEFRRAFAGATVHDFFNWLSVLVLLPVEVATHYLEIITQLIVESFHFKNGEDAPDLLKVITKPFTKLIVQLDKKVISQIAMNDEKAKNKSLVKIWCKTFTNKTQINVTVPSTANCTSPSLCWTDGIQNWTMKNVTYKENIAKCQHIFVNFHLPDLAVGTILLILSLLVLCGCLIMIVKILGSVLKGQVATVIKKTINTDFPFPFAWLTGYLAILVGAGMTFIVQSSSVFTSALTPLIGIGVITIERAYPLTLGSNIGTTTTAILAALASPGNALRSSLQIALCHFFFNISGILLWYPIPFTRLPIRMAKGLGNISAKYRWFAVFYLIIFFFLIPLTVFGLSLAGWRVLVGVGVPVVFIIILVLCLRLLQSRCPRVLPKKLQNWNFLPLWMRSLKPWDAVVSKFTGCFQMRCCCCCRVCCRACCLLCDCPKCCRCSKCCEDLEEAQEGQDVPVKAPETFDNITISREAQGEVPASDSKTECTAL
# Procedure, shortened: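 HEK293 cells transiently transfected with human NaP2b (Thr inserted after residue 37, N39D), endogenous PiT transport pharmacologically silenced. Sodium or choline buffer, pH 7.4, with 100 uM KH2PO4, 33P orthophosphate and compound (0.1 nM–30 uM, twelve concentrations, duplicate). 3-30 min at room temperature, scintillation counting, pIC50 derived.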
SMILES,IC50 (rat NaP2b (SLC34A2)) [µM],"% remaining, SGF [1] [%]","% remaining, SIF [2]",AUC [3] [ng·h/mL],Cmax [3] [ng/mL],IC50 (human NaP2b (SLC34A2)) [µM]
"CCN(CC)c1ccc(NC(=O)c2cccc(C(=O)N(C)CCN3CCOCC3)c2)c(-c2cc(C(=O)N[C@H]3CCCc4ccccc43)ccn2)c1 [Example 131, (S)—N^1-(4-(diethylamino)-2-(4-((1,2,3,4-tetrahydronaphthalen-1-yl)carbamoyl)pyridin-2-yl)phenyl)-N^3-methyl-N^3-(2-morpholinoethyl)isophthalamide]",< 1,>80,>80%,< 50,< 30,
"CCN(CC)c1ccc(NC(=O)c2cccc(CSc3cccc(CC(=O)O)c3)c2)c(-c2cc(C(=O)NCc3cccc(C(F)(F)F)c3)ccn2)c1 [Example 143, 2-(3-(3-(4-(diethylamino)-2-(4-(3-(trifluoromethyl)benzylcarbamoyl)pyridin-2-yl)phenylcarbamoyl)benzylthio)phenyl)acetic acid]",< 1,,,< 10,< 10,< 1
"O=C(CCOCCOCCOCCOCCSCc1cccc(C(=O)Nc2ccc(N3CCCCC3)cc2-c2cc(C(=O)NCc3cccc(C(F)(F)F)c3)ccn2)c1)NCCN1CCOCC1 [Example 146, 2-(2-(3-(20-morpholino-17-oxo-5,8,11,14-tetraoxa-2-thia-18-azaicosyl)benzamido)-5-(piperidin-1-yl)phenyl)-N-(3-(trifluoromethyl)benzyl)isonicotinamide]",1 to 7.94,>80,60-80%,< 10,< 10,
O=C(NCc1cccc(C(F)(F)F)c1)c1ccnc(-c2cc(N3CCCCC3)ccc2NC(=O)c2cccc(CSCCOCCOCCOCCOCCC(=O)N3CCN(CCOCCO)CC3)c2)c1 [Example 147],1 to 7.94,>80,>80%,< 10,< 10,
"CCN(CC)c1ccc(NC(=O)c2cccc(Cn3ccc4c(C(=O)NCCOCCOCCOCCC(=O)O)cccc43)c2)c(-c2cc(C(=O)N[C@H]3CCCc4ccccc43)ccn2)c1 [Example 182, (S)-1-(1-(3-(4-(diethylamino)-2-(4-(1,2,3,4-tetrahydronaphthalen-1-ylcarbamoyl)pyridin-2-yl)phenylcarbamoyl)benzyl)-1H-indol-4-yl)-1-oxo-5,8,11-trioxa-2-azatetradecan-14-oic acid]",,>80,>80%,,,
"CCN(CC)c1ccc(NC(=O)c2cccc(C(=O)N(C)CCN3CCCN(C(=O)OCCOCCOCCOCCOCCOCCOCCOCCOCCOCCOCCOC)CC3)c2)c(-c2cc(C(=O)N[C@H]3CCCc4ccccc43)ccn2)c1 [Example 199, (S)-2,5,8,11,14,17,20,23,26,29,32-undecaoxatetratriacontan-34-yl 4-(2-(3-((4-(diethylamino)-2-(4-((1,2,3,4-tetrahydronaphthalen-1-yl)carbamoyl)pyridin-2-yl)phenyl)carbamoyl)-N-methylbenzamido)ethyl)-1,4-diazepane-1-carboxylate]",,>80,>80%,< 10,< 10,
"CN(CCN1CCNC(=O)C1)C(=O)c1cccc(C(=O)Nc2ccc(N3CCCCC3)cc2-c2cc(C(=O)N[C@H]3CCCc4ccccc43)ccn2)c1 [Example 215, (S)—N1-methyl-N1-(2-(3-oxopiperazin-1-yl)ethyl)-N3-(4-(piperidin-1-yl)-2-(4-(1,2,3,4-tetrahydronaphthalen-1-ylcarbamoyl)pyridin-2-yl)phenyl)isophthalamide]",< 1,,,< 10,< 10,< 1
"CN1CCN(CCN(C)C(=O)c2cccc(C(=O)Nc3ccc(N4CCCCC4)cc3-c3cc(C(=O)N[C@H]4CCCc5ccccc54)ccn3)c2)CC1=O [Example 216, (S)—N1-methyl-N1-(2-(4-methyl-3-oxopiperazin-1-yl)ethyl)-N3-(4-(piperidin-1-yl)-2-(4-(1,2,3,4-tetrahydronaphthalen-1-ylcarbamoyl)pyridin-2-yl)phenyl)isophthalamide]",< 1,,,< 10,< 10,< 1
"O=C(O)CCOCCOCCOCCNC(=O)c1cccc(SCc2cccc(C(=O)Nc3ccc(N4CCCCC4)cc3-c3cc(C(=O)N[C@H]4CCCc5ccccc54)ccn3)c2)c1 [Example 233, (S)-1-oxo-1-(3-(3-(4-(piperidin-1-yl)-2-(4-(1,2,3,4-tetrahydronaphthalen-1-ylcarbamoyl)pyridin-2-yl)phenylcarbamoyl)benzylthio)phenyl)-5,8,11-trioxa-2-azatetradecan-14-oic acid]",1 to 7.94,,,< 10,< 10,1 to 7.94
"O=C(O)Cc1cccc(SCc2cccc(C(=O)Nc3ccc(N4CCCCC4)cc3-c3cc(C(=O)N[C@H]4CCCc5ccccc54)ccn3)c2)c1 [Example 234, (S)-2-(3-(3-(4-(piperidin-1-yl)-2-(4-(1,2,3,4-tetrahydronaphthalen-1-ylcarbamoyl)pyridin-2-yl)phenylcarbamoyl)benzylthio)phenyl)acetic acid]",< 1,,,< 30,< 10,< 1
"CN(CCOCCOCCOCCC(=O)O)C(=O)Cc1cccc(SCc2cccc(C(=O)Nc3ccc(N4CCCCC4)cc3-c3cc(C(=O)N[C@H]4CCCc5ccccc54)ccn3)c2)c1 [Example 235, (S)-3-methyl-2-oxo-1-(3-(3-(4-(piperidin-1-yl)-2-(4-(1,2,3,4-tetrahydronaphthalen-1-ylcarbamoyl)pyridin-2-yl)phenylcarbamoyl)benzylthio)phenyl)-6,9,12-trioxa-3-azapentadecan-15-oic acid]",< 1,>80,>80%,,,
"CCN(CC)c1ccc(NC(=O)c2cccc(C(=O)N(C)CCN(CCOC)CCOCCOCCOCCC(=O)N(C)CCN3CCOCC3)c2)c(-c2cc(C(=O)NCc3cccc(C(F)(F)F)c3)ccn2)c1 [Example 338, N^1-(4-(Diethylamino)-2-(4-(3-(trifluoromethyl)benzylcarbamoyl)pyridin-2-yl)phenyl)-N^3-(3-(2-methoxyethyl)-16-methyl-18-morpholino-15-oxo-6,9,12-trioxa-3,16-diazaoctadecyl)-N^3-methylisophthalamide]",1 to 7.94,,,,,1 to 7.94
